In PMC6828666, “Discovery of holoenzyme-disrupting chemicals as substrate-selective CK2 inhibitors” (Scientific Reports, 2019):
Blank lines part the entries; values can stand above or below the compound they belong to.

Assays:
[1] = tested on: survivin expression in MCF10A cells; assay: Western blot of survivin expression; format: cell-based, human; conditions: 24 h, 25 μM 6 or 30 μM TAT-Pc
Description: Figure 5 Cellular effects of compounds 3, 4 and 6. MCF10A cells were incubated for 24 h with either DMSO or 30 μM TAT or 30 μM TAT-Pc or 25 μM 6 (a) or with increasing concentrations of 6 (b) or 3 (c). MCF10A cells were incubated for 48 h with either DMSO or with increasing concentrations of 3 or 6 (d). Cells were then lysed and analyzed by western blot with the indicated antibodies. Blot images are representative of at least three independent experiments. Uncropped blots are shown in Supplementary Fig. S16. (e) MDA-MB231 cells were treated with 40 μM 6 (⚬), 4 (▴) or 3 (X). (f) MDA-MB231 cells were treated for 30 h with increasing concentrations of 6 (⚬) or 4 (▴). Insert: cells were treated for 30 h with 80 μM 6 or 10 μM CX-4945. […] Cell death was automatically quantified from images captured every 3 h for the duration of the experiments using an Essen IncuCyte Zoom live-cell microscopy incubator. […]
Cells were lysed in RIPA buffer (10 mM Tris-HCl pH 7.4, 150 mM NaCl, 1% Triton X-100, 0.1% SDS, 0.5% DOC and 1 mM EDTA) containing both protease- and phosphatase-inhibitor cocktails (Sigma-Aldrich; P8340, P2850, P5726). Cell homogenates were quantified using BCA protein Assay kit (Thermo Scientific). […] Luminata Forte Western HRP substrate (Millipore) was added and membranes were read with Fusion Fx7 (PerkinElmer). […] Images were analyzed and band intensities were quantified using ImageJ software. […]

[2] = target: CK2α/CK2β interaction (Homo sapiens, UniProt P68400); assay: SPR competition study of MBP-CK2β binding to GST-CK2α; conditions: 70 μM
Description: SPR competition studies (Fig. 2i) were performed using a BIAcore 3000 instrument (BIAcore AB) equipped with a CM5 sensor chip (BIAcore AB). After activation with a solution of N-hydroxysuccinimide and N-ethyl-N-(dimethylaminopropyl)carbodiimide hydrochloride (coupling solution BIAcore AB), the anti-GST antibody diluted at 30 μg/ml in 10 mM acetate buffer pH 5.0 was injected at a flow rate of 5 μL/min for 7 min. All the surfaces were blocked with a 3 min injection at 10 μL/min of 1 M ethanolamine, pH 8.0. GST-CK2α (50 μg/ml) was immobilized on the surface at a flow rate of 5 μL/min in HBS (10 mM Hepes pH 7.3, 0.15 M NaCl, 3 mM EDTA, 0.005% polysorbate 20). MBP-CK2β diluted at 50 μg/ml in HBS buffer was injected over the surface at a flow rate of 5 μL/min in presence of various compound 1 concentration. Regeneration of the surfaces was achieved by injection of 10 mM glycine-HCl pH 2.2. SPR binding studies (Supplementary Fig. S7) were performed using a Reichert SR7000DC instrument optical biosensor (Reichert Technologies) equipped with a CMD500m sensor chip obtained from XanTec Bioanalytics. CK2α was immobilized by a capturing approach using a monoclonal anti-GST antibody (27 kDa, Clone GST-R 6G9 produced in rat, SAB4200055 Sigma Aldrich). […]

[3] = target: CK2α (Homo sapiens, UniProt P68400); assay: STD-NMR competition with AMPPNP; format: binding
Description: Standard 1D, STD, and WaterLOGSY NMR spectra were acquired at 20 °C with a Bruker 600 MHz NMR spectrometer, equipped with a Z-gradient cryoprobe. WaterLOGSY mixing time was 1.5 s. Both STD and WaterLOGSY spectra were recorded for each sample. WaterLOGSY spectra in the absence of protein receptor were recorded with 300 µM compound to assess the compound solubility. All the NMR experiments were performed at 293 K with excitation sculpting to suppress peaks from water. 1D and STD experiments were performed using identical experimental conditions (spin lock, interscan delays), and parameters for the STD experiments (saturation frequency and saturation time) were identical for all samples. […] NMR tubes contained 2 μM CK2 with 300 μM of 4.
Fig. S8. NMR-based investigation of the binding of compound 4 to CK2α. (a) NMR-STD epitope mapping observed for compound 4. […] Both compounds bind simultaneously to CK2α.

Chain of CK2α/CK2β interaction (P68400 whole entry): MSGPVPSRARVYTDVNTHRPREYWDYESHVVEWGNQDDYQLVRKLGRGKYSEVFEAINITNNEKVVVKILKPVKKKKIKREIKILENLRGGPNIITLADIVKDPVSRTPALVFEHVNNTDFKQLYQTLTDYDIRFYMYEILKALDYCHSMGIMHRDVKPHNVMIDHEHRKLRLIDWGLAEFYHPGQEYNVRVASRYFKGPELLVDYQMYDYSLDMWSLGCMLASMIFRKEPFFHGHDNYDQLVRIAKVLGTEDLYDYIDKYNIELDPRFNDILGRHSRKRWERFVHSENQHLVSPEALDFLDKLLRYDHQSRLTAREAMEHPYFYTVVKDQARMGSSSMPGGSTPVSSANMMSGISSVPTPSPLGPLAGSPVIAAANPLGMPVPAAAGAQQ
Chain of CK2α (P68400 whole entry): as above

Structure (SMILES): COc1[nH]c2ccc(F)cc2c1C(=O)OCC1CCN(CCNS(=O)(=O)c2ccccc2)CC1.Cl [Compound 6]
- survivin expression [1]: decreased

Structure (SMILES): COc1[nH]c2ccc(F)cc2c1C(=O)OCC1CCN(CCNS(C)(=O)=O)CC1 [Compound 1]
- reduction of SPR signal (MBP-CK2β binding to GST-CK2α) [2]: about 60%

- displacement of AMPPNP upon compound binding [3]: not displaced
Structure (SMILES): O=C(OCC1CCN(CCNS(=O)(=O)c2ccccc2)CC1)c1c[nH]c2ccccc12 [Compound 4, (1-(2-(Phenylsulfonamido)ethyl)piperidin-4-yl)methyl 1H-indole-3-carboxylate]
